{
  "source": "patent US20140113888A1",
  "about": "“Novel Combination of Therapeutic Agents” (Glaxo Group Limited, priority 2011, published 2014)",
  "key": {"[1]": {"assay": "8 week randomised, double-blind, placebo-controlled study in persistent uncontrolled asthma", "format": "in vivo, human", "procedure": "In one such study, the safety and efficacy of four doses of fluticasone furoate in subjects with persistent uncontrolled asthma were evaluated. In this study, which was a randomised, double-blind, placebo-controlled, parallel group study, 598 patients received one of six treatments: fluticasone furoate (25, 50, 100 or 200 mcg) once daily, fluticasone propionate 100 mcg twice daily or placebo for 8 weeks. The primary endpoint was change from baseline in trough (pre-dose) forced expiratory volume in 1 second (FEV1) at Week 8. […] This study supports the use of fluticasone furoate (100 or 200 mcg once-daily) for the treatment of persistant uncontrolled asthma."}, "[2]": {"assay": "clinical studies of fluticasone furoate (general statement)", "format": "in vivo, human"}, "human M3 receptor": {"molecular_target": "human M3 receptor (Homo sapiens, UniProt P20309)", "sequence (P20309 whole entry)": "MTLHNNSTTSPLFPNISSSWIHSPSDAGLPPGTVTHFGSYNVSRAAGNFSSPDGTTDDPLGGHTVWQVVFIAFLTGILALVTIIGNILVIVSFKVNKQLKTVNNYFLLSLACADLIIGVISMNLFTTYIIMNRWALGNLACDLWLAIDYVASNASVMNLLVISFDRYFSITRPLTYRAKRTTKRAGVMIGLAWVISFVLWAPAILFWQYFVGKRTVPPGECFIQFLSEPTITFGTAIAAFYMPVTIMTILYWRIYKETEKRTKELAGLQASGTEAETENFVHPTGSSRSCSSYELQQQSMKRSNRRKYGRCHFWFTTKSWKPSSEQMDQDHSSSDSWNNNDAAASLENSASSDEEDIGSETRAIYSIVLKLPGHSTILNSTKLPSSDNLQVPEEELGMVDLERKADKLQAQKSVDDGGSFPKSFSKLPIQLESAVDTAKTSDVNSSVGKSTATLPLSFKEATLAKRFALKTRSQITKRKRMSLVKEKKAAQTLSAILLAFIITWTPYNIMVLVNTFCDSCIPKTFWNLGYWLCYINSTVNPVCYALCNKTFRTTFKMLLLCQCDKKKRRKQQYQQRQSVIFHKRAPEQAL", "assay": "reversibility at the human M3 receptor in vitro", "format": "binding"}, "[3]": {"assay": "duration of action in vivo, administered directly to the lungs in pre-clinical models"}, "[4]": {"assay": "clinical pharmacology studies, single inhaled doses, plethysmography (sGaw, Raw) and spirometry (FEV1)", "format": "in vivo, human", "conditions": "healthy volunteers and COPD patients", "procedure": "Several clinical pharmacology studies have been conducted using umeclidinium bromide in both healthy volunteers and COPD patients to investigate the safety, tolerability, pharmacokinetics and pharmacodynamics of this compound. The bronchodilatory effects and duration of action of single inhaled doses of this compound as measured by plethysmography (sGaw, Raw) and spirometry (FEV1) were assessed in some of the above noted studies."}, "[5]": {"assay": "14-day once-daily study in subjects with COPD", "format": "in vivo, human", "conditions": "14 days", "excerpt": "In addition, this study confirmed that umeclidinium bromide has a once-daily profile."}, "[6]": {"assay": "28 day once-daily dry powder inhaler study in subjects with COPD", "format": "in vivo, human", "conditions": "125, 250 and 500 mcg once-daily, 28 days", "excerpt": "A further study evaluated the efficacy and safety of three doses (125 mcg, 250 mcg and 500 mcg) of umeclidinium bromide administered once-daily via a dry powder inhaler over a 28 day period in subjects with COPD."}, "muscarinic receptor": {"tested_on": "muscarinic receptor", "assay": "studies in animal models and in humans: muscarinic receptor antagonism"}},
  "data": [
    {"smiles": "C[C@@H]1C[C@H]2[C@@H]3C[C@H](F)C4=CC(=O)C=C[C@]4(C)[C@@]3(F)[C@@H](O)C[C@]2(C)[C@@]1(OC(=O)c1ccco1)C(=O)SCF", "note": "[fluticasone furoate, 6α,9α-difluoro-17α-[(2-furanylcarbonyl)oxy]-11β-hydroxy-16α-methyl-3-oxo-androsta-1,4-diene-17β-carbothioic acid S-fluoromethyl ester]", "values": [
      {"measurement": "change from baseline in trough FEV1 at Week 8 relative to placebo", "setting": "[1]; 50-200 mcg once daily, p<0.05", "result": "significantly greater increases"},
      {"measurement": "increase in trough FEV1 at Week 8", "setting": "[1]; 100 mcg once daily", "result": "> 200", "unit": "mL"},
      {"measurement": "increase in trough FEV1 at Week 8", "setting": "[1]; 200 mcg once daily", "result": "> 200", "unit": "mL"},
      {"measurement": "tolerability", "setting": "[2]; clinical studies", "result": "well-tolerated"},
      {"measurement": "activity after dosing", "setting": "[2]; inhaled", "result": "still active 24 hours after dosing"}
    ]},
    {"smiles": "OC(c1ccccc1)(c1ccccc1)C12CC[N+](CCOCc3ccccc3)(CC1)CC2.[Br-]", "note": "[umeclidinium bromide, 4-[hydroxy(diphenyl)methyl]-1-{2-[(phenylmethyl)oxy]ethyl}-1-azoniabicyclo[2.2.2]octane bromide]", "values": [
      {"measurement": "reversibility at the human M3 receptor", "setting": "human M3 receptor", "result": "slow reversibility"},
      {"measurement": "duration of action in vivo", "setting": "[3]", "result": "long duration of action"},
      {"measurement": "bronchodilatory effects (sGaw, Raw, FEV1)", "setting": "[4]", "result": "clinically relevant bronchodilation"},
      {"measurement": "duration of action", "setting": "[4]", "result": 24, "unit": "h"},
      {"measurement": "pulmonary function compared to placebo", "setting": "[5]; 62.5, 125, 250, 500 and 1000 mcg once-daily", "result": "statistically significant improvements"},
      {"measurement": "trough FEV1 versus open label tiotropium active control (18 mcg once-daily)", "setting": "[5]; all once-daily doses 62.5-1000 mcg", "result": "numerically greater improvement"},
      {"measurement": "bronchodilation", "setting": "[6]", "result": "significant bronchodilation over twenty four hours"},
      {"measurement": "safety", "setting": "[6]", "result": "safe"},
      {"measurement": "muscarinic receptor antagonist profile", "setting": "muscarinic receptor", "result": "long acting high-affinity pan-active muscarinic receptor antagonist"}
    ]}
  ]
}
